From patent US20140094465A1, “Compounds as S-Nitrosoglutathione Reductase Inhibitors” (N30 PHARMACEUTICALS, INC., priority 2011, published 2014) come the findings set out here.

Series [1] relates to ovalbumin (OVA)-induced asthma. The series is described as follows: Mouse model of ovalbumin (OVA)-induced asthma (Penh, eosinophil infiltrate in BALF). The series is classed as in vivo. Conditions: for decrease of eosinophil infiltration in BAL: three oral doses of 10 mg/kg at 48 h, 24 h, and 1 h prior to assessment. The procedure: A mouse model of ovalbumin (OVA)-induced asthma was used to screen GSNOR inhibitors for efficacy against methacholine (MCh)-induced bronchoconstriction/airway hyper-responsiveness. This is a widely used and well characterized model that presents with an acute, allergic asthma phenotype with similarities to human asthma. Efficacy of GSNOR inhibitors was assessed using a protocol in which GSNOR inhibitors were administered after OVA sensitization and airway challenge, and prior to challenge with MCh. Bronchoconstriction in response to challenge with increasing doses of MCh was assessed using whole body plethysmography (Penh; Buxco). The amount of eosinophil infiltrate into the bronchoaveolar lavage fluid (BALF) was also determined as a measure of lung inflammation. The effects of GSNOR inhibitors were compared to vehicles and to Combivent (inhaled; IH) as the positive control.
OVA (500 μg/ml) in PBS was mixed with equal volumes of 10% (w/v) aluminum potassium sulfate in distilled water and incubated for 60 min. at room temperature after adjustment to pH 6.5 using 10 N NaOH. After centrifugation at 750×g for 5 min, the OVA/alum pellet was resuspended to the original volume in distilled water. Mice received an intraperitoneal (IP) injection of 100 μg OVA (0.2 mL of 500 μg/mL in normal saline) complexed with alum on day 0. Mice were anesthetized by IP injection of a 0.2-mL mixture of ketamine and xylazine (0.44 and 6.3 mg/mL, respectively) in normal saline and were placed on a board in the supine position. Two hundred fifty micrograms (100 μl of a 2.5 mg/ml) of OVA (on day 8) and 125 μg (50 μl of 2.5 mg/ml) OVA (on days 15, 18, and 21) were placed on the back of the tongue of each animal.
In vivo airway responsiveness to methacholine was measured 24 h after the last OVA challenge in conscious, freely moving, spontaneously breathing mice with whole body plethysmography using a Buxco chamber (Wilmington, N.C.). Mice were challenged with aerosolized saline or increasing doses of methacholine (5, 20, and 50 mg/mL) generated by an ultrasonic nebulizer for 2 min. The degree of bronchoconstriction was expressed as enhanced pause (Penh), a calculated dimensionless value, which correlates with the measurement of airway resistance, impedance, and intrapleural pressure in the same mouse. Penh readings were taken and averaged for 4 min. after each nebulization challenge. Penh is calculated as follows: Penh=[(Te/Tr−1)×(PEF/PIF)], where Te is expiration time, Tr is relaxation time, PEF is peak expiratory flow, and PIF is peak inspiratory flow×0.67 coefficient. The time for the box pressure to change from a maximum to a user-defined percentage of the maximum represents the relaxation time. The Tr measurement begins at the maximum box pressure and ends at 40%.
After measurement of airway hyper-reactivity, the mice were exsanguinated by cardiac puncture, and then BALF was collected from either both lungs or from the right lung after tying off the left lung at the mainstem bronchus. Total BALF cells were counted from a 0.05 mL aliquot, and the remaining fluid was centrifuged at 200×g for 10 min at 4° C. Cell pellets were resuspended in saline containing 10% BSA with smears made on glass slides. Eosinophils were stained for 5 min. with 0.05% aqueous eosin and 5% acetone in distilled water, rinsed with distilled water, and counterstained with 0.07% methylene blue. Alternatively, eosinophils and other leukocytes were stained with DiffQuik.
GSNOR inhibitors were reconstituted in phosphate buffered saline (PBS), pH 7.4, or 0.5% w/v carboxy methylcellulose at concentrations ranging from 0.00005 to 3 mg/mL. GSNOR inhibitors were administered to mice (10 mL/kg) as a single dose or multiple dose either intravenously (IV) or orally via gavage. Dosing was performed from 30 min. to 72 h prior to MCh challenge. Effects of GSNOR inhibitors were compared to vehicle dosed in the same manner.
Combivent was used as the positive control in all studies. […]

Series [2] in a line: Mouse pharmacokinetic (PK) study. Conditions: male, BALB/c, plasma, po, 10 mg/kg, male BALB/c mice, 2 mg/kg IV, 10 mg/kg PO, read-out: oral bioavailability (% F). The series is classed as in vivo. An excerpt: The mouse was used to determine the pharmacokinetics of compounds of the invention. This species is widely used to assess the bioavailability of compounds by administering both oral (PO) and intravenous (IV) test articles. Efficacy of the compounds of the invention was compared by assessing plasma exposure in male BALB/c mice either via IV or PO administration at the times of peak activity.
Compounds of the invention were reconstituted in a phosphate buffered saline (PBS)/10% Solutol (HS 15) clear solution resulting in a concentration of 0.2 mg/mL and administered to mice (2 mg/kg) as a single IV dose. Animals were dosed via the lateral tail vein. Blood samples were collected at designated time points (0.083, 0.25, 0.5, 1, 2, 4, 8, 16, 24 hours) by cardiac puncture under isoflurane anesthesia (up to 1 mL blood per animal). The blood was collected into tubes containing Li-Heparin. The blood samples were kept on ice until centrifugation within approximately 30 minutes of collection. The plasma was transferred into labeled polypropylene tubes and frozen at −70° C. until analyzed by LC/MS/MS.
The compounds of the invention were reconstituted in 40% Propylene Glycol/40% Propylene Carbonate/20% of a 5% Sucrose clear solution resulting in a concentration of 2 mg/mL and administered to mice (10 mg/kg) as a single oral dose via gavage. Blood samples were collected at 0.25, 0.5, 1, 2, 4, 8, 12, 16, 20 and 24 hours post dose by cardiac puncture under isoflurane anesthesia. The blood was collected in tubes containing Li-Heparin. The blood samples were kept on ice until centrifugation within approximately 30 minutes of collection. The plasma was transferred into labeled polypropylene tubes and frozen at −70° C. until analyzed by LC/MS/MS.
Plasma samples at each timepoint were analyzed using a LC-MS/MS with a lower limit of quantification (LLOQ) of 1 ng/mL. Plasma was analyzed to determine the amount of the compound of the invention in each sample and regression curves generated for each compounds of the invention in the relevant matrixes.
WinNonlin analysis was used for calculating PK parameters for both the IV and PO administrations:
PK parameters for IV portion—AUClast; AUCINF; T1/2; Cl; Vss; Cmax; MRT
PK parameters for PO portion—AUClast; AUCINF; T1/2; Cmax; Cl, MRT.
In addition to the above PK parameters, bioavailability (% F) was calculated.

[3] abbreviates: single oral dose of 10 mg/kg at 24 h prior to assessment.

On to `O=c1[nH]c(-c2ccc(-c3c(C(F)(F)F)oc4cc(O)ccc4c3=O)cc2)no1` [IV-31], for which, in series [1] (setting [3]), the “decrease of AUC for Penh” value is recorded as 18 % of vehicle control and the “decrease of eosinophil infiltration into BALF” value is recorded as 82 % of vehicle control. The bioavailability in series [2] is greater than 9%.
`O=c1c(-c2ccc(-c3nnn[nH]3)cc2)c(C(F)(F)F)oc2cc(O)ccc12` [IV-23]: the “decrease of AUC for Penh” value in series [1] (single IV dose of 10 mg/kg at 24 h prior to assessment) is 39 % of vehicle control. Besides, the bioavailability in series [2] is greater than 9%.
On to `O=C(O)c1ccc(-c2ccc3cc(O)ccc3c2)c(F)c1` [III-2], for which the “decrease of eosinophil infiltration in BAL” value (from here on “decrease … in BAL”) in series [1] was 44 % of vehicle control. Besides, the bioavailability in series [2] was greater than 9%.
In the case of `O=C(O)c1ccc(-c2c(C(F)(F)F)oc3cc(O)ccc3c2=O)c(F)c1` [IV-38], the “decrease … in BAL” value in series [1] is given as 36 % of vehicle control. Further, the bioavailability in series [2] is greater than 9%.
With `O=c1c2ccc(O)cc2oc(C(F)(F)F)c1[C@H]1CC[C@H](C(=O)O)CC1` [IV-25], in series [1] (setting [3]), the “decrease of AUC for Penh” value is 43 % of vehicle control and the “decrease of eosinophil infiltration into BALF” value was 42 % of vehicle control. Moreover, the “decrease … in BAL” value in series [1] was 12 % of vehicle control. Moreover, in series [2], the bioavailability is greater than 9%.

Broadly, the bioavailability is the share of a dose that reaches the circulation, judged against a reference dose that is usually intravenous.
